Structures can show the parent of a compound that is named as a salt.
Biological target: T1, serotonin transporter (SERT) (Homo sapiens, UniProt P31645)
T1 construct: gene SLC6A4
Assay: cell-based

T1 sequence (P31645 whole entry): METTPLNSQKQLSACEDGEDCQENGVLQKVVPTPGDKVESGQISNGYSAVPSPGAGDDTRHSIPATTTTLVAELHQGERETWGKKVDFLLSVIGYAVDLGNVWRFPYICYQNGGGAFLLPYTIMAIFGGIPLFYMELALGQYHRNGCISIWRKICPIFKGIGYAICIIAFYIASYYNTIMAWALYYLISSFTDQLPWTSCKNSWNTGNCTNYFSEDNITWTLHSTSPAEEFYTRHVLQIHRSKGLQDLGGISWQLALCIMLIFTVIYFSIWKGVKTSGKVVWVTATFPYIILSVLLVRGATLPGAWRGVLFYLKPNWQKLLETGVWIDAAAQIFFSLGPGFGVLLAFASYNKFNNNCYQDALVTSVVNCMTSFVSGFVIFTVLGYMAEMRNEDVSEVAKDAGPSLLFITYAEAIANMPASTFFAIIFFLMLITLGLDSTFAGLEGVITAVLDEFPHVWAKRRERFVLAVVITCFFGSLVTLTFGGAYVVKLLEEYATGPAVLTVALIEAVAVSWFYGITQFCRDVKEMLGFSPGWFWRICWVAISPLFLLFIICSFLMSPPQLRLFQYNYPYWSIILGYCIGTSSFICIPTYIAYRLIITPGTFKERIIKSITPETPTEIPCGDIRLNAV

Question: `Clc1ccc2sc(C3CCNCC3)nc2c1` [compound 1, 5-chloro-2-(piperidin-4-yl)-1,3-benzothiazole hydrochloride] was tested. Which IC50 did it give?
Answer: 6.24 nM

From article PMC7803991, “Prediction of pharmacological activities from chemical structures with graph convolutional neural networks” (Scientific Reports, 2021)
